IC50 data for 86 compounds are collected here from the COVID Moonshot data (paper PMC7615835).

Each structure is given as a SMILES string. pIC50: −log10 of the molar value. Several values for one entry are separate records, joined by “and”; a condition that tells them apart may be missing. Equal entries are not always repeated.

The pIC50 is the negative decadic logarithm of the IC50, by convention in mol/L. A higher pIC50 goes with a small IC50.

The target of this assay is SARS-CoV-2 Main Protease (SARS-CoV-2) (UniProt P0DTD1).
Take `CN(C)c1ncc(C(C(=O)NCCc2cccc(F)c2)N(C(=O)c2cocn2)c2ccc(C(C)(C)C)cc2)cn1` (stereo unspecified): the negative logarithm of the IC50 (pIC50) was less than 4.00.
On to `CNC(=O)CN1Cc2ccc(Cl)cc2C(C(=O)Nc2cncc3cc(NS(C)(=O)=O)ccc23)C1` (stereo unspecified), for which the pIC50 is 7.14.
Turning to `CNC(=O)C1(N2CC3(CCN(c4cncc5cc(S(C)(=O)=O)ccc45)C3=O)c3cc(Cl)ccc3C2=O)CC1` (stereo unspecified), the pIC50 was 6.58.
Compound `COc1ccccc1OC1CN(C(=O)c2cc(=O)[nH]c3ccccc23)C1` gave a pIC50 of less than 4.00.
Compound `CS(=O)(=O)c1ccc2c(NC(=O)C34CC(C3)Oc3ccc(Cl)cc34)cncc2c1` showed a pIC50 of 4.64.
In the case of `C=CC(=O)NCc1ccccc1S(=O)(=O)NC` it was less than 4.00.
For `CC(C)(C)OC(=O)N(c1cc(Cl)cc(CC(=O)Nc2cncc3ccccc23)c1)C1CNC1` the value was 5.69; for `O=C(Nc1cncc2ccccc12)N(CCC1CCCCC1)c1cccc(Cl)c1`, 6.58.
With `Clc1ccc2c(c1)C1(CCO2)CCN(c2cncc3cccc(Cl)c23)C1` (stereo unspecified), the pIC50 was less than 4.00.
In the case of `C[C@H](Nc1cc(Cl)cc(CC(=O)Nc2cncc3ccccc23)c1)c1ccc(Br)cc1` (stereo in doubt), the pIC50 is 5.42.
In the case of `O=C(Cc1cccc(Cl)c1)Nn1cnc2ccccc21` it was 5.08; in that of `COc1ccc(S(=O)(=O)N2CCN(C(=O)CCl)CC2)cc1`, 4.56.
`CS(=O)(=O)CC1(C(=O)Nc2cncc3ccccc23)CCOc2ccc(Cl)cc21` (stereo unspecified): the pIC50 was 4.81.
In the case of `O=C(Nc1ccc(N(Cc2ccsc2)C(=O)Cn2nnc3ccccc32)cc1)C1CC1` it was 5.40; in that of `NC(=O)CN1Cc2ccc(Cl)cc2C(C(=O)Nc2cncc3ccccc23)C1` (stereo unspecified), 6.96 and 6.93 and 6.89; in that of `CC(C)(C)OC(=O)NCCCNC(=O)C(c1cccnc1)N(C(=O)c1cocn1)c1ccc(C(C)(C)C)cc1` (stereo unspecified), 5.47.
In the case of `O=C1O[C@]2(CCOc3ccc(Cl)cc32)C(=O)N1c1cncc2ccccc12` (stereo in doubt) it was 4.09 and < 5.00.
For the compound `O=C(Nc1cncc2c1CCCC2)C1CNS(=O)(=O)c2ccc(Cl)cc21` (stereo unspecified), the pIC50 was 6.34.
In the case of `COCCNC(=O)[C@@H](c1ccccc1)N1Cc2ccccc2C1=O` (stereo in doubt), the pIC50 was less than 4.00.
In the case of `O=C(Nc1cccc(F)c1)[C@@H](c1ccccc1)N1Cc2ccccc2C1=O` (stereo in doubt) it was less than 4.00; in that of `CC(NC(=O)Nc1ccn2ccnc2c1)c1ccc2[nH]c(=O)oc2c1` (stereo unspecified), less than 4.00; in that of `O=C(Cc1cc(Cl)cc(-c2nnn[nH]2)c1)Nc1cncc2ccccc12`, 4.67.
Turning to `Cc1ccc(-c2ccc(C(=O)N3CC[C@H](N)C3)c(F)c2)cc1` (stereo in doubt), the pIC50 is less than 4.00.
`CN(C)C(=O)CN1CCc2ccc(Cl)cc2C1C(=O)Nc1cncc2ccccc12` (stereo unspecified) showed a pIC50 of 5.81.
For `Cc1ccc2nc(Nc3cc(Cl)cc(CC(=O)Nc4cncc5ccccc45)c3)sc2c1` the value was 4.64; for `O=C(Cc1cc(Cl)cc(Nc2cc(Cl)cnc2Br)c1)Nc1cncc2ccccc12`, 5.70.
The compound `Cc1cccc(C)c1NC(=O)[C@@H]1CN(C(=O)CCl)CCN1S(=O)(=O)c1ccsc1` (stereo in doubt) showed a pIC50 of 5.79.
In the case of `O=c1[nH]c2ccc(-c3csc(NCc4ccc(F)cc4)n3)cc2o1` it was less than 4.00; in that of `C=CC(=O)N(c1ccc2ncsc2c1)C(C(=O)Nc1cccc(CC)c1)c1cccnc1` (stereo unspecified), 4.20 and 4.26.
In turn, `COc1ccc(N(Cc2ccccc2)C(=O)Cc2c[nH]c3ccccc23)cc1` gave a negative-log IC50 (pIC50) of less than 4.00.
Consider `N#Cc1nccn1CCc1cccc(Cl)c1`, for which the negative logarithm of the IC50 (pIC50) is less than 4.00.
`C=CC(=O)N(c1cc(C(C)(C)C)on1)C(C(=O)NC(C)(C)C)c1cccnc1` (stereo unspecified) had a negative logarithm of the IC50 (pIC50) of less than 4.00.
In the case of `O=C(Cc1cc(Cl)cc(B(O)O)c1)Nc1cncc2ccccc12` it was 5.32; in that of `CC(C)(C)NC(=O)CN1CC(C(=O)Nc2cncc3cc(S(C)(=O)=O)ccc23)c2cc(Cl)ccc2C1=O` (stereo unspecified), 6.61.
For `O=C(NCCc1cccc(F)c1)C(c1cccnc1)N(C(=O)c1cnc[nH]1)c1ccc2c(c1)COCC2` (stereo unspecified) the value was less than 4.00; for `Cn1cc(C(C(=O)NCCc2cccc(F)c2)N(C(=O)c2cocn2)c2ccc(C(C)(C)C)cc2)ccc1=O` (stereo unspecified), less than 4.00; for `CC(=O)Nc1ccc(Nc2cc(Cl)cc(CC(=O)Nc3cncc4ccccc34)c2)c(C(F)(F)F)c1`, 5.68.
As for `C=CC(=O)Nc1cc(C(=O)NC[C@H](Cc2ccccc2)c2ccccn2)ccc1O` (stereo in doubt), the negative logarithm of the IC50 (pIC50) was less than 4.00.
In the case of `CC(C)OCc1cc(C(=O)N2CCC(C3CCNC3)CC2)ccc1F` (stereo unspecified), the pIC50 is less than 4.00.
Turning to `COc1ccc2c(NC(=O)C3CCOc4ccc(Cl)cc43)[nH]nc2c1` (stereo unspecified), the negative-log IC50 (pIC50) was less than 4.00.
For `O=C(Cc1cccc(Cl)c1)NC1=NC(=O)c2ccccc21` the value was less than 4.00.
Compound `CC(C)(C)c1ccc(N(C(=O)C2CCCN2)C(C(=O)NCCc2cccc(F)c2)c2cccnc2)cc1` (stereo unspecified) gave a pIC50 of less than 4.00.
`O=C(Cc1cc(Cl)cc(Nc2cc(C(F)(F)F)ccc2Cl)c1)Nc1cncc2ccccc12` gave a negative-log IC50 (pIC50) of 5.79.
For `COCCNC(=O)C(c1cccnc1)N(C(=O)c1cocn1)c1ccc(C(C)(C)C)cc1` (stereo unspecified) the value was 5.07.
For `CSc1ccc(CN(C(=O)c2ccco2)C(C(=O)NCCc2cccc(F)c2)c2cccnc2)cc1C#N` (stereo unspecified) the value was 4.26; for `O=C(Cc1cc(Cl)cc(Nc2cncc(Br)c2)c1)Nc1cncc2ccccc12`, 5.67; for `CC(C)(C)c1ccc(N(C(=O)c2sc(N3CCOCC3)nc2Cl)C(C(=O)NCCc2cccc(F)c2)c2cccnc2)cc1` (stereo unspecified), less than 4.00.
For `O=C(NCCc1cccc(F)c1)C(c1cccnc1)N(C(=O)c1cocn1)C1CCc2cc(F)ccc21` (stereo unspecified) the value was less than 4.00; for `O=C(Cc1cc(Cl)cc(Nc2ncc(Br)nc2Cl)c1)Nc1cncc2ccccc12`, 5.77.
The compound `O=C(CC1(C(=O)Nc2cncc3ccccc23)CCOc2ccc(Cl)cc21)N1CCN(CC(F)(F)CO)CC1` (stereo unspecified) gave a negative logarithm of the IC50 (pIC50) of 5.14.
For `O=C(c1cncc2ccccc12)N1CCN(c2cccc(Cl)c2)CC1` the value was 5.80.
In the case of `O=C(Cc1cc(Cl)cc(Nc2ccc(F)nc2Br)c1)Nc1cncc2ccccc12` it was 5.73; in that of `CN(C(=O)Cn1nnc2ccccc21)c1ccc(Oc2ccc(C(F)(F)F)cn2)cc1`, 4.42.
For `CN(C)C(=O)CN1CCC(C(=O)Nc2cncc3ccccc23)c2cc(Cl)ccc21` (stereo unspecified) the value was 5.60.
In the case of `O=C1OC(c2cccs2)=N/C1=C\c1ccc(N2CCOCC2)s1`, the pIC50 was 6.16.
For `O=C(Cc1cccc(Cl)c1)Nc1cncc2sccc12` the value was 6.37; for `Nc1cccc(C2CN(C(=O)CCl)Cc3ccccc32)c1` (stereo unspecified), 5.03.
In the case of `O=C(NCCc1cccc(F)c1)C(c1cccnc1)N(C(=O)c1ccco1)C1CCN(c2ccccc2)CC1` (stereo unspecified) it was 4.10; in that of `O=C(Nc1cncc2ccccc12)[C@@H]1COc2ccc(Cl)cc2C1` (stereo in doubt), less than 4.00; in that of `Cc1ccncc1NC(=O)Cc1cc(Cl)cc(-c2ccc(C3CC3(F)F)cc2)c1` (stereo unspecified), 5.07.
`COCCCNCC1(C(=O)Nc2cncc3ccccc23)CCOc2ccc(Cl)cc21` (stereo unspecified) had a pIC50 of 4.94.
Regarding `O=C(Nc1ccc(F)cc1)[C@@H](c1ccccc1)N1Cc2ccccc2C1=O` (stereo in doubt), the pIC50 was less than 4.00.
The compound `C=CC(=O)N(c1ccc(C(C)(C)C)cc1)C(C(=O)NCCc1cccc(F)c1)c1cncc(Cl)c1` (stereo unspecified) showed a pIC50 of 4.94.
In turn, `CC(C)(C)c1ccc(N(C(=O)c2cocn2)C(C(=O)NCCc2cccc(F)c2)c2c(N3CCOCC3)nc3ccccn3c2=O)cc1` (stereo unspecified) had a pIC50 of less than 4.00.
The compound `Cn1cncc1C(=O)N1Cc2ccc(Cl)cc2C(C(=O)Nc2cncc3ccccc23)C1` (stereo unspecified) showed a pIC50 of 6.65.
In the case of `O=C(/C=C/c1ccccc1)N1CCN(S(=O)(=O)c2cccc(F)c2)CC1` it was less than 4.00; in that of `CC(C)(C)c1ccc(N(C(=O)c2cocn2)C(C(=O)NCCc2cnc[nH]2)c2cccnc2)cc1` (stereo unspecified), 4.84; in that of `CCc1cc(Br)ccc1Nc1cc(Cl)cc(CC(=O)Nc2cncc3ccccc23)c1`, 5.50.
In the case of `CCc1ccc([N+](=O)[O-])cc1Nc1cc(Cl)cc(CC(=O)Nc2cncc3ccccc23)c1` it was 5.77; in that of `COc1ccc(Cl)cc1N1C(=O)CN(Cc2cc(=O)[nH]c3ccccc23)C1=O`, less than 4.00; in that of `Cc1ccncc1NC(=O)Cc1cc(Cl)cc(NC2CCCC2O)c1` (stereo unspecified), 4.71.
For `O=C(Cc1cc(Cl)cc(N2CCN(CCc3ccccc3)CC2)c1)Nc1cncc2ccccc12` the value was 5.30; for `Cc1cnn(C)c1C(=O)N1Cc2ccc(Cl)cc2C2(CCN(c3cncc4ccccc34)C2=O)C1` (stereo unspecified), 6.17.
`CC(=O)C(=O)N1CCN(Cc2cccc(Cl)c2)CC1` had a negative logarithm of the IC50 (pIC50) of less than 4.00.
For `Cn1nncc1CC(=O)NC(c1ccccc1)c1nc2ccccc2n1C` (stereo unspecified) the value was 4.45; for `NC(=O)C12COC(CNC(=O)CC3(C(=O)Nc4cncc5ccccc45)CCOc4ccc(Cl)cc43)(C1)C2` (stereo unspecified), 5.04.
Turning to `O=C(Cc1cc(Cl)cc(Nc2ccc(Oc3ccccc3Cl)cc2)c1)Nc1cncc2ccccc12`, the pIC50 was 5.60.
The compound `CC1=C[C@@H](c2c(O)cc(-c3cc4ccc(O)cc4o3)cc2O)[C@@H](C(=O)c2ccc(O)cc2O)[C@H](c2ccc(O)cc2O)C1` (stereo in doubt) showed a pIC50 of less than 4.00.
For `O=C(Nc1cncc2ccccc12)C1CCN(Cc2cnc[nH]2)c2ccc(Cl)cc21` (stereo unspecified) the value was 5.95.
For `CC(C)CS(=O)(=O)N1Cc2ccc(Cl)cc2C(C(=O)Nc2cncc3ccccc23)C1` (stereo unspecified) the value was 6.97; for `O=C(NCCc1cccc(F)c1)C(c1cccnc1)N(C(=O)c1cocn1)c1ccc2c(c1)CCCS2(=O)=O` (stereo unspecified), less than 4.00.
In turn, `COCCN1CC(C(=O)Nc2cncc3ccccc23)c2cc(Cl)ccc2C1=O` (stereo unspecified) gave a pIC50 of 6.57.
For `Cc1nocc1C(=O)N1Cc2ccc(Cl)cc2C(C(=O)Nc2cncc3ccccc23)C1` (stereo unspecified) the value was 6.77; for `C=CC(=O)N(c1ccc(C(C)(C)C)cc1)C(C(=O)NC(C)(C)C)c1cncc(Cl)c1` (stereo unspecified), 4.18; for `O=C(NCC1CCCCC1)[C@@H]1CN(C(=O)CCl)CCN1S(=O)(=O)c1ccsc1` (stereo in doubt), 5.96.
For `O=C(Nc1cncc2ccccc12)C1CN(CC(F)(F)F)Cc2ccc(Cl)cc21` (stereo unspecified) the value was 5.47.
